Measured values: PubChem BioAssay AID226 (DTP/NCI, 2004)
Values joined by “and” are separate entries in the source; they are usually repeats but may differ in a detail not shown here. Equal values may be shown once. Inconclusive results and toxic doses are left out.

Test system: B6C3F1 mice, intracerebral ependymoblastoma, median survival T/C
Assay: NCI In Vivo Anticancer Drug Screen. Data for tumor model Ependymoblastoma (intracerebral) in B6C3F1 mice
Conditions: endpoint: median survival time, higher = longer survival
Description: The antitumor activity of compounds was measured in mice bearing transplantable tumors. Survival or tumor size were measured and the results are expressed as the measurement made in the treated group (T) divided by the measurement made in the vehicle treated control group (C). The tumor model used in this assay is Ependymoblastoma (intracerebral) in B6C3F1 mice

[1] = dose: 64.0 mg/kg/injection, schedule: Q01DX005 (ip), vehicle: saline with Tween-80
[2] = dose: 128.0 mg/kg/injection, schedule: Q01DX005 (ip), vehicle: saline with Tween-80
[3] = dose: 8.0 mg/kg/injection, schedule: Q01DX005 (ip), vehicle: Klucel (hydroxypropylcellulose) (HPC)
[4] = dose: 16.0 mg/kg/injection, schedule: Q01DX005 (ip), vehicle: Klucel (hydroxypropylcellulose) (HPC)
[5] = dose: 32.0 mg/kg/injection, schedule: Q01DX005 (ip), vehicle: Klucel (hydroxypropylcellulose) (HPC)
[6] = dose: 64.0 mg/kg/injection, schedule: Q01DX005 (ip), vehicle: Klucel (hydroxypropylcellulose) (HPC)
[7] = dose: 128.0 mg/kg/injection, schedule: Q01DX005 (ip), vehicle: Klucel (hydroxypropylcellulose) (HPC)
[8] = dose: 256.0 mg/kg/injection, schedule: Q01DX005 (ip), vehicle: Klucel (hydroxypropylcellulose) (HPC)
[9] = dose: 512.0 mg/kg/injection, schedule: Q01DX005 (ip), vehicle: Klucel (hydroxypropylcellulose) (HPC)
[10] = dose: 16.0 mg/kg/injection, schedule: Q01DX005 (ip), vehicle: saline
[11] = dose: 32.0 mg/kg/injection, schedule: Q01DX005 (ip), vehicle: saline
[12] = dose: 64.0 mg/kg/injection, schedule: Q01DX005 (ip), vehicle: saline
[13] = dose: 12.5 mg/kg/injection, schedule: Q01DX005 (ip), vehicle: Klucel (hydroxypropylcellulose) (HPC)
[14] = dose: 25.0 mg/kg/injection, schedule: Q01DX005 (ip), vehicle: Klucel (hydroxypropylcellulose) (HPC)
[15] = dose: 50.0 mg/kg/injection, schedule: Q01DX005 (ip), vehicle: Klucel (hydroxypropylcellulose) (HPC)
[16] = dose: 100.0 mg/kg/injection, schedule: Q01DX005 (ip), vehicle: Klucel (hydroxypropylcellulose) (HPC)

CC/C(=C(/CC)c1ccc(O)cc1)c1ccc(O)cc1
T/C (dose: 16.0 mg/kg/injection, schedule: Q01DX005 (ip), vehicle: saline with Tween-80): 102 % of control | T/C (dose: 32.0 mg/kg/injection, schedule: Q01DX005 (ip), vehicle: saline with Tween-80): 102 % of control | T/C [1]: 109 % of control | T/C [2]: 104 % of control

NC(=O)c1ncn(C2OC(CO)C(O)C2O)n1 (stereo not given)
T/C (dose: 20.0 mg/kg/injection, schedule: Q01DX005 (ip), vehicle: saline): 99 % of control and 100 % of control | T/C (dose: 40.0 mg/kg/injection, schedule: Q01DX005 (ip), vehicle: saline): 98 % of control and 101 % of control | T/C (dose: 80.0 mg/kg/injection, schedule: Q01DX005 (ip), vehicle: saline): 92 % of control and 103 % of control | T/C (dose: 160.0 mg/kg/injection, schedule: Q01DX005 (ip), vehicle: saline): 104 % of control and 121 % of control | T/C (dose: 320.0 mg/kg/injection, schedule: Q01DX005 (ip), vehicle: saline): 97 % of control and 118 % of control

C#C[C@]1(O)CC[C@H]2[C@@H]3CCc4cc(O)ccc4[C@H]3CC[C@@]21C
T/C [3]: 97 % of control and 103 % of control | T/C [4]: 98 % of control and 109 % of control | T/C [5]: 100 % of control and 106 % of control | T/C [6]: 97 % of control and 119 % of control | T/C [7]: 104 % of control and 107 % of control | T/C [8]: 104 % of control and 124 % of control | T/C [9]: 109 % of control and 111 % of control

C[n+]1c2ccccc2nc2c(N)cc(N)cc21
T/C (dose: 4.0 mg/kg/injection, schedule: Q01DX005 (ip), vehicle: saline): 100 % of control and 101 % of control | T/C (dose: 8.0 mg/kg/injection, schedule: Q01DX005 (ip), vehicle: saline): 101 % of control and 102 % of control | T/C [10]: 103 % of control and 108 % of control | T/C [11]: 103 % of control and 114 % of control

NC(CO)(CO)CO
T/C (dose: 200.0 mg/kg/injection, schedule: Q01DX005 (ip), vehicle: saline): 98 % of control | T/C (dose: 400.0 mg/kg/injection, schedule: Q01DX005 (ip), vehicle: saline): 110 % of control | T/C (dose: 800.0 mg/kg/injection, schedule: Q01DX005 (ip), vehicle: saline): 105 % of control | T/C (dose: 1600.0 mg/kg/injection, schedule: Q01DX005 (ip), vehicle: saline): 110 % of control

COC(=O)c1cccc(N=NN(C)C)c1
T/C (dose: 8.0 mg/kg/injection, schedule: Q01DX005 (ip), vehicle: saline + alcohol): 98 % of control | T/C (dose: 16.0 mg/kg/injection, schedule: Q01DX005 (ip), vehicle: saline + alcohol): 108 % of control | T/C (dose: 32.0 mg/kg/injection, schedule: Q01DX005 (ip), vehicle: saline + alcohol): 123 % of control | T/C (dose: 100.0 mg/kg/injection, schedule: Q01DX005 (ip), vehicle: saline with Tween-80): 114 % of control | T/C (dose: 128.0 mg/kg/injection, schedule: Q01DX005 (ip), vehicle: saline + alcohol): 162 % of control

c1cc2n(n1)CCN2
T/C (dose: 32.0 mg/kg/injection, schedule: Q01DX005 (ip), vehicle: water): 93 % of control and 88 % of control | T/C (dose: 32.0 mg/kg/injection, schedule: Q#A X006 (ip), vehicle: water): 100 % of control | T/C (dose: 64.0 mg/kg/injection, schedule: Q01DX001 (ip), vehicle: water): 93 % of control and 94 % of control | T/C (dose: 64.0 mg/kg/injection, schedule: Q01DX001 (oral), vehicle: water): 100 % of control and 106 % of control | T/C (dose: 64.0 mg/kg/injection, schedule: Q01DX005 (ip), vehicle: water): 102 % of control and 104 % of control | T/C (dose: 64.0 mg/kg/injection, schedule: Q01DX005 (oral), vehicle: water): 98 % of control | T/C (dose: 64.0 mg/kg/injection, schedule: Q#A X002 (ip), vehicle: water): 98 % of control | T/C (dose: 64.0 mg/kg/injection, schedule: Q#A X004 (ip), vehicle: water): 94 % of control | T/C (dose: 64.0 mg/kg/injection, schedule: Q#A X006 (ip), vehicle: water): 102 % of control | T/C (dose: 128.0 mg/kg/injection, schedule: Q01DX001 (ip), vehicle: water): 92 % of control and 93 % of control | T/C (dose: 128.0 mg/kg/injection, schedule: Q01DX001 (oral), vehicle: water): 103 % of control and 108 % of control | T/C (dose: 128.0 mg/kg/injection, schedule: Q01DX005 (ip), vehicle: water): 91 % of control and 113 % of control | T/C (dose: 128.0 mg/kg/injection, schedule: Q01DX005 (oral), vehicle: water): 104 % of control | T/C (dose: 128.0 mg/kg/injection, schedule: Q#A X002 (ip), vehicle: water): 100 % of control | T/C (dose: 128.0 mg/kg/injection, schedule: Q#A X004 (ip), vehicle: water): 109 % of control | T/C (dose: 128.0 mg/kg/injection, schedule: Q#A X006 (ip), vehicle: water): 102 % of control | T/C (dose: 256.0 mg/kg/injection, schedule: Q01DX001 (ip), vehicle: water): 92 % of control and 100 % of control | T/C (dose: 256.0 mg/kg/injection, schedule: Q01DX001 (oral), vehicle: water): 98 % of control and 100 % of control | T/C (dose: 256.0 mg/kg/injection, schedule: Q01DX005 (ip), vehicle: water): 106 % of control | T/C (dose: 256.0 mg/kg/injection, schedule: Q01DX005 (oral), vehicle: water): 116 % of control | T/C (dose: 256.0 mg/kg/injection, schedule: Q#A X002 (ip), vehicle: water): 98 % of control | T/C (dose: 256.0 mg/kg/injection, schedule: Q#A X006 (ip), vehicle: water): 115 % of control | T/C (dose: 512.0 mg/kg/injection, schedule: Q01DX001 (ip), vehicle: water): 106 % of control and 122 % of control | T/C (dose: 512.0 mg/kg/injection, schedule: Q01DX001 (oral), vehicle: water): 103 % of control and 121 % of control | T/C (dose: 1024.0 mg/kg/injection, schedule: Q01DX001 (ip), vehicle: water): 109 % of control

ClC(Cl)=C(Cl)Cl
T/C (dose: 25.0 mg/kg/injection, schedule: Q01DX005 (ip), vehicle: other): 110 % of control and 122 % of control | T/C (dose: 50.0 mg/kg/injection, schedule: Q01DX005 (ip), vehicle: other): 100 % of control and 113 % of control | T/C (dose: 100.0 mg/kg/injection, schedule: Q01DX005 (ip), vehicle: other): 101 % of control and 105 % of control | T/C (dose: 200.0 mg/kg/injection, schedule: Q01DX005 (ip), vehicle: other): 93 % of control and 97 % of control

F
T/C [10]: 112 % of control | T/C [11]: 107 % of control | T/C [12]: 105 % of control

Nc1ccn(C2OC(COP(=O)(O)O)C(O)C2O)c(=O)n1 (stereo not given)
T/C [10]: 96 % of control | T/C [11]: 95 % of control | T/C [12]: 107 % of control | T/C (dose: 128.0 mg/kg/injection, schedule: Q01DX005 (ip), vehicle: saline): 112 % of control

CCCCCN(C)/N=N/c1nc[nH]c1C(N)=O
T/C [1]: 153 % of control | T/C [2]: 160 % of control

COc1cc(C[C@H]2c3cc(OC)c(OC)cc3CCN2C)c(Oc2cc3c(cc2OC)-c2c(OC)c(OC)cc4c2[C@H](C3)N(C)CC4)cc1OC
T/C [13]: 94 % of control | T/C [14]: 100 % of control | T/C [15]: 100 % of control and 102 % of control and 105 % of control | T/C [16]: 102 % of control

C/C(=C\c1ccccc1)[N+](=O)[O-]
T/C (dose: 3.12 mg/kg/injection, schedule: Q01DX005 (ip), vehicle: Klucel (hydroxypropylcellulose) (HPC)): 96 % of control | T/C (dose: 6.25 mg/kg/injection, schedule: Q01DX005 (ip), vehicle: Klucel (hydroxypropylcellulose) (HPC)): 100 % of control | T/C [13]: 92 % of control | T/C [14]: 92 % of control | T/C [15]: 91 % of control | T/C [16]: 91 % of control

C[C@]1(O)CC[C@H]2[C@@H]3CCC4=CC(=O)CC[C@]4(C)[C@@]3(F)[C@@H](O)C[C@@]21C
T/C [3]: 91 % of control and 102 % of control | T/C [4]: 96 % of control and 102 % of control | T/C [5]: 93 % of control | T/C [6]: 97 % of control and 98 % of control | T/C [7]: 92 % of control and 104 % of control | T/C [8]: 93 % of control and 97 % of control | T/C [9]: 91 % of control

COS(C)(=O)=O
T/C [10]: 118 % of control | T/C [11]: 102 % of control | T/C [12]: 100 % of control

CN1CC[C@]23c4c5ccc(O)c4O[C@H]2C(=O)CC[C@H]3[C@H]1C5
T/C (dose: 6.25 mg/kg/injection, schedule: Q01DX005 (iv), vehicle: saline): 113 % of control | T/C (dose: 12.5 mg/kg/injection, schedule: Q01DX005 (iv), vehicle: saline): 114 % of control | T/C (dose: 25.0 mg/kg/injection, schedule: Q01DX005 (iv), vehicle: saline): 122 % of control
